Experiments:
[1] = biological target: T1, Porcine ventricle myofibrils (ventricular myosin ATPase) (Sus scrofa, UniProt P79293); assay: Myofibril ATPase assay, porcine ventricle myofibrils; format: biochemical, porcine (Yucatan minipigs); details: porcine ventricle myofibrils
T1 construct: Myofibrils from porcine cardiac muscle was isolated from the left ventricle of Yucatan minipigs; tissue Exemplar Genetics; host or cells: left ventricle of Yucatan minipigs, myofibrils prepared in house
Description: (§1) Example 1. Myofibril ATPase Assay
(§2) Myofibril ATPase assays are known in the art to be useful in evaluating small molecules for the treatment of HCM and other cardiac indications. Myosin ATPase activity is assessed by using a coupled reaction system, in which ADP generated by the myosin ATPase function is coupled to the disappearance of NADH through the pyruvate kinase/lactate dehydrogenase (PK-LDH) system. ATPase activity produces ADP, which is used as a substrate for PK to produce pyruvate and regenerate ATP. The pyruvate is then used as a substrate by LDH to oxidize NADH to NAD+. The rate of the reaction is monitored through the time-dependent disappearance of NADH using absorbance at 340 nm, which, when the couple system is in stoichiometric excess, is directly correlated to the ATPase activity of the myosin. Inhibition of ATPase activity by the assayed compounds is indicated by a reduced rate of NADH loss, relative to vehicle-treated controls, over the experimental time window. Activation of ATPase activity by the assayed compounds is indicated by an increased rate of NADH loss, relative to vehicle-treated controls, over the experimental time window. Rabbit Psoas, Porcine atria, and Porcine ventricle are the primary sources of myofibril material.
(§3) Materials: The following stock solutions and reagents were used in the Myofibril ATPase Assay:
(§4) Stock Solutions of pCa buffer. Combine PIPES, CaCl2, and EGTA solutions with water. Adjust pH to 7.0 and bring final volume to 100 mL.
(§5) Buffer A & Buffer B. Prepare buffers A and B according to the table below.
(§6) Myofibril ATPase Assay Procedure: BSA, ATP, NADH, PEP, and DTT solutions were thawed at room temperature, then transferred to ice. Pellet-frozen myofibrils were transferred with approximately twice the required volume into a sufficiently large tube and capped. Myofibrils were thawed by rolling in a water bath for approximately 15 min at room temperature and cooled on ice. Buffers A and B were prepared by adjusting volumes as necessary for required number of wells and stored on ice. 0.5 μL of the compounds to be assayed were added into wells. 25 μL of Buffer A was dispensed into the wells, followed by 25 μL of Buffer B. The wells were measured for absorbance at 340 nm, using a kinetic protocol in which the wells are read every 1.5-2 min for 75 min. Assay data analysis was performed using a python script that filtered the raw data to retain those points falling between a starting and ending time and between a maximum and minimum absorbance, then used the filtered time-domain 340 nm absorbance data in each well to calculate a slope via linear regression analysis in units of mAU/min. Compound slopes were normalized between 100% and 0% activity, where 100% represented the slope of wells containing only compound vehicle, and fit to a 4-parameter logistic model. In addition to the fit parameters, the EC25% values were calculated, relative to the 100% normalized value. Additionally, the Y125 values were calculated for compounds that increased myosin ATP-ase activity. Fit parameters, calculated effective concentrations, filtered raw data, and calculated slopes were exported, in addition to compound-specific graphs of normalized ATPase activity versus concentration in μM. Each value reported in Table 5, Table 6, and Table 7 is either a Y75 value or a Y125 value. Values without a double cross sign, ‡, are Y75 values, which reflect the concentration required to reduce myosin ATP-ase activity by 25% (e.g., Y-axis activity value is 75% of initial value), relative to myosin ATP-ase activity in the absence of exogenous compound.
Cardiac Myofibril Isolation:
Myofibrils from porcine cardiac muscle was isolated from the left ventricle of Yucatan minipigs. Myofibrils were prepared using a method based upon those described in Herrmann et al. (1993) and summarized here. […]

[2] = tested on: Rabbit Psoas myofibrils (skeletal myosin ATPase); assay: Myofibril ATPase assay, rabbit psoas (skeletal) myofibrils; format: biochemical; details: rabbit psoas myofibrils
Description: as §1, §2, §3, §4, §5, §6
Skeletal Myofibril Isolation:
(§7) Myofibrils from various animals and tissue types were acquired from a variety of sources: rabbit psoas muscle was purchased from Pel-Freez Biologicals (Rogers, AR) and porcine cardiac muscle was purchased from Exemplar Genetics. All myofibrils were prepared using a method based upon those described in Herrmann et al. (1993) and summarized here. […]

[3] = tested on: Porcine atria myofibrils (atrial myosin ATPase); assay: Myofibril ATPase assay, porcine atria myofibrils; format: biochemical; details: porcine atria myofibrils
Description: as §1, §2, §3, §4, §5, §6, §7

[4] = Y75 value (75% activity relative to no compound)

T1 sequence (P79293 whole entry): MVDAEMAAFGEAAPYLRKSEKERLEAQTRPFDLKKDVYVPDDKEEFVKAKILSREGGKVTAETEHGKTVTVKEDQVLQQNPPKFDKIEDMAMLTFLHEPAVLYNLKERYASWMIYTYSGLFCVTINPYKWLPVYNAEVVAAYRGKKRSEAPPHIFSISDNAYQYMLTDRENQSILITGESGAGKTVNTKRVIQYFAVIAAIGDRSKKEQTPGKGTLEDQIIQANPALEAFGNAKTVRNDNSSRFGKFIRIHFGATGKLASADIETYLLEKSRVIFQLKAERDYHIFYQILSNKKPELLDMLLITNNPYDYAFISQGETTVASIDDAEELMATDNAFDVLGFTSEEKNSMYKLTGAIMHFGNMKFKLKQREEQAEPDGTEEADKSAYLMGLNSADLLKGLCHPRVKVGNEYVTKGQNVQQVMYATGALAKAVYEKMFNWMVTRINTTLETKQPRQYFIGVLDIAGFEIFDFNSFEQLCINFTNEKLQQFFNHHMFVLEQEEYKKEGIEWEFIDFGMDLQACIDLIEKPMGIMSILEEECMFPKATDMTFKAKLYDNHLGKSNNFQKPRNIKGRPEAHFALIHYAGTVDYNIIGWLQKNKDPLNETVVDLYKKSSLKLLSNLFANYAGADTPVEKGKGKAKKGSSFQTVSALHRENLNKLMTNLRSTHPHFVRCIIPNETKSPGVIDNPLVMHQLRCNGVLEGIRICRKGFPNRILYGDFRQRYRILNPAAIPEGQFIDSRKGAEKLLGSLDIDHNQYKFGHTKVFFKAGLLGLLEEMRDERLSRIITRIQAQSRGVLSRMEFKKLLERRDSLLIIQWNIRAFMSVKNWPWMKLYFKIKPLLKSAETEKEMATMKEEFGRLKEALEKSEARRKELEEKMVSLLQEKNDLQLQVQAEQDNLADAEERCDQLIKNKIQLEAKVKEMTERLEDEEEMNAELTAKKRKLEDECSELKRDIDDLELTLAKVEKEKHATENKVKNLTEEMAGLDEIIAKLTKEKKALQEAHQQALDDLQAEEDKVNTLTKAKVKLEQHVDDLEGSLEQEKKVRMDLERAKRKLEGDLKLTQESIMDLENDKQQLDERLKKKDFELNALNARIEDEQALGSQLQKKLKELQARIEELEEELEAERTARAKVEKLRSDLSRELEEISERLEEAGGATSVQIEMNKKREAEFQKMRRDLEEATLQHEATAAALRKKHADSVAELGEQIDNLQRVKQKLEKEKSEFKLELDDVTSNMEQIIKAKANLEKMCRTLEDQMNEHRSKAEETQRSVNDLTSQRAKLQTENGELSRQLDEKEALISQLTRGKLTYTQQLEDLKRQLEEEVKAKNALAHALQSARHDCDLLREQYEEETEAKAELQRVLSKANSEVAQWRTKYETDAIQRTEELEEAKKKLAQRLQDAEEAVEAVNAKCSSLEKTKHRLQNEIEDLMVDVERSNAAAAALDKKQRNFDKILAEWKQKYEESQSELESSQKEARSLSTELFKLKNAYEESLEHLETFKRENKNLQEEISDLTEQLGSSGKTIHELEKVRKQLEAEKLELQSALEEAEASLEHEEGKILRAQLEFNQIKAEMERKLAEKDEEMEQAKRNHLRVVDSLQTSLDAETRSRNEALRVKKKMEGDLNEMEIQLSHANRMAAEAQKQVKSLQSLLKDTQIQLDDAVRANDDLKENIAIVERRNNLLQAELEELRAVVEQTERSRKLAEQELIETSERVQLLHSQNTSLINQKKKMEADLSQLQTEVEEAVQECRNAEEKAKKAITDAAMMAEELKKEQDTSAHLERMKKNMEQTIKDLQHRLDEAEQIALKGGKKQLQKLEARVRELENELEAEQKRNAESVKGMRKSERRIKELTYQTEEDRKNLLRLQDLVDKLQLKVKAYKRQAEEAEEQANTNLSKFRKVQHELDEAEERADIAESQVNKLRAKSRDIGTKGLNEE

C[C@H](NC(=O)Cc1cc2cc(F)c(F)cc2[nH]c1=O)c1cnc(C#N)cn1 [compound 1099]
Ventricular EC25 ([1]; Y75 value (no ‡ mark)): 49750 nM | Skeletal EC25 ([2]; Y75 value (no ‡ mark)): 4410 nM | Atrial EC25 ([3]; Y75 value (no ‡ mark)): 7610 nM

Cc1nc(C#N)cnc1[C@@H](C)NC(=O)C1(c2cc3c(F)c(F)ccc3[nH]c2=O)CC1 (single isomer, unassigned) [compound 4825]
Ventricular EC25 ([1]; Y75 value (no ‡ mark)): 100000 nM | Skeletal EC25 ([2]; Y75 value (no ‡ mark)): 100000 nM | Atrial EC25 ([3]; Y75 value (no ‡ mark)): 430 nM

Cc1c(CC(=O)N[C@@H](C)c2ccc(C#N)cc2F)c(=O)[nH]c2ccnc(C#N)c12 (single isomer, unassigned) [compound 283]
Ventricular EC25 ([1]; Y75 value): 100 nM | Skeletal EC25 ([2]; Y75 value): 10 nM | Atrial EC25 [3, 4]: 40 nM

Cc1nccc2[nH]c(=O)c(CC(=O)N[C@@H](C)c3ncc(F)cc3F)c(C)c12 (single isomer, unassigned) [compound 379]
Ventricular EC25 ([1]; Y75 value): 5810 nM | Skeletal EC25 ([2]; Y75 value): 360 nM | Atrial EC25 [3, 4]: 2360 nM

Cc1c(CC(=O)N[C@H](C)c2ccc(C#N)nn2)c(=O)[nH]c2cc(F)c(F)cc12 [compound 1042]
Ventricular EC25 ([1]; Y75 value (no ‡ mark)): 24000 nM | Skeletal EC25 ([2]; Y75 value (no ‡ mark)): 1880 nM | Atrial EC25 ([3]; Y75 value (no ‡ mark)): 890 nM

Cc1c(CC(=O)N[C@@H](C)c2ncc(C3COC3)cn2)c(=O)[nH]c2ccc(F)c(F)c12 (single isomer, unassigned) [compound 2044]
Ventricular EC25 ([1]; Y75 value (no ‡ mark)): 5840 nM | Skeletal EC25 ([2]; Y75 value (no ‡ mark)): 29360 nM | Atrial EC25 ([3]; Y75 value (no ‡ mark)): 9190 nM

Cc1nccc2[nH]c(=O)c([C@@H](C)C(=O)N[C@@H](C)c3ncc(C#N)cc3F)c(C)c12 (single isomer, unassigned) [compound 193]
Ventricular EC25 ([1]; Y75 value): 5940 nM | Skeletal EC25 ([2]; Y75 value): 750 nM | Atrial EC25 [3, 4]: 470 nM

Cc1c(CC(=O)N[C@H]2COc3cc(C#N)cnc32)c(=O)[nH]c2ccc(F)cc12 [compound 1063]
Ventricular EC25 ([1]; Y75 value (no ‡ mark)): 760 nM | Skeletal EC25 ([2]; Y75 value (no ‡ mark)): 220 nM | Atrial EC25 ([3]; Y75 value (no ‡ mark)): 160 nM

Cc1c(F)ccc2[nH]c(=O)c(CC(=O)N[C@@H](C)c3ccc(C#N)cc3F)c(O)c12 [compound 20]
Ventricular EC25 ([1]; Y75 value (no ‡ mark)): 310 nM | Skeletal EC25 ([2]; Y75 value (no ‡ mark)): 510 nM | Atrial EC25 ([3]; Y75 value (no ‡ mark)): 210 nM

Cc1nccc2[nH]c(=O)c(CC(=O)N[C@@H](C)c3ccc(F)cc3F)c(F)c12 [compound 150]
Ventricular EC25 ([1]; Y75 value): 680 nM | Skeletal EC25 ([2]; Y75 value): 90 nM | Atrial EC25 [3, 4]: 60 nM

C[C@@H](NC(=O)Cc1c(O)c2cc(F)c(F)cc2[nH]c1=O)c1ccc(C#N)cc1F [compound 1086]
Ventricular EC25 ([1]; Y75 value (no ‡ mark)): 100000 nM | Skeletal EC25 ([2]; Y75 value (no ‡ mark)): 100000 nM | Atrial EC25 ([3]; Y75 value (no ‡ mark)): 1940 nM

C[C@H](NC(=O)C1(c2cc3c(F)c(F)ccc3[nH]c2=O)CC1)c1ccc(F)cc1F [compound 4814]
Ventricular EC25 ([1]; Y75 value (no ‡ mark)): 1310 nM | Skeletal EC25 ([2]; Y75 value (no ‡ mark)): 190 nM | Atrial EC25 ([3]; Y75 value (no ‡ mark)): 230 nM

Cc1c(CC(=O)N[C@H]2COc3cccnc32)c(=O)[nH]c2ccnc(C#N)c12 (single isomer, unassigned) [compound 213]
Ventricular EC25 ([1]; Y75 value): 100000 nM | Skeletal EC25 ([2]; Y75 value): 7670 nM | Atrial EC25 [3, 4]: 100000 nM
